According to US9045524B2, “Selective caspase inhibitors and uses thereof” (NOVAGENESIS FOUNDATION, priority 2009, dated 2015):

Experiments:
Caspase-5 [1] = molecular target: T1, Caspase-5 (Homo sapiens (Human), UniProt P51878); assay: Fluorometric enzymatic assay, active recombinant Caspase-5; type: biochemical; conditions: 10-point titration 0.1 nM to 3.3 μM, 30-minute incubation at 37° C.; read-out: IC50 values (μM) Caspase-5
Procedure: (§1) . In brief, each compound was serially diluted for a final test concentration range of 0.1 nM to 3.3 μM (10-point titration). Each active recombinant Caspase (Active Recombinant Caspase Set IV™ (BioVision, Cat# K233-10-25)) was added to the respective wells of the 96-well High Efficiency™ plates (Molecular Devices, Cat#75-000-0005), followed by the addition of the diluted test compounds. DMSO (Final=1%) or Z-VAD-FMK (Caspase-Family Inhibitor, Z-VAD-FMK (BioVision, Cat#1010-100), Final concentration=20 uM) was added in the designated wells as a background control or positive inhibitor control respectively. Each dilution of the test compounds was tested in duplicates, whereas the DMSO or Z-VAD-FMK controls were tested in triplicates. The synthetic peptide substrate specific for each Caspase (BioVision) was then added to the respective wells, which when cleaved by the active caspase releases free AFC that can be quantified by fluorometry. After a 30-minute incubation at 37° C., the plates were read using the Flexstation 3™ with a 400 nm excitation filter and a 505 nm emission filter (cutoff at 495 nm). The inhibition efficiency and the IC50 values of the test compounds were then determined by comparing the fluorescence intensity (FI) of the test compounds with that of the DMSO control.
(§2) The SoftMax Pro Software™ (v5.2 rev C, Molecular Devices) was used for data analysis. The % Inhibition is calculated by: % Inhibition=[FI(DMSO)−FI(test sample)/FI(DMSO)]×100. The % Inhibition vs. Log(concentration) was plotted, and the curve was fitted using the 5-parameter fit of the software.
Target sequence in this assay (P51878 whole entry, looked up): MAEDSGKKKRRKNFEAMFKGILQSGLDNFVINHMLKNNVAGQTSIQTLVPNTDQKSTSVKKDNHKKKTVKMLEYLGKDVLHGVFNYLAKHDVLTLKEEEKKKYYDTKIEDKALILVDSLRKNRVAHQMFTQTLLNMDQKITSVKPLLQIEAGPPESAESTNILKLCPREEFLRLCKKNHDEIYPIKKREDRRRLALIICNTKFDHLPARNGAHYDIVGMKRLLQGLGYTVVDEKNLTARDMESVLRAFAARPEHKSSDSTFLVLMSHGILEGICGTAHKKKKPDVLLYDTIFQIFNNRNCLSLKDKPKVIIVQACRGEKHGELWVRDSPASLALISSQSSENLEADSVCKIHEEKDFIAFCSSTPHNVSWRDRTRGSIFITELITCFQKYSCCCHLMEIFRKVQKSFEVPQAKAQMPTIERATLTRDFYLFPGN
Target sequence in this assay (P51878 whole entry, looked up): as above

Caspase-6 = Caspase-6 (Homo sapiens (Human), UniProt P55212); assay: Fluorometric enzymatic assay, active recombinant Caspase-6; type: biochemical; conditions: 10-point titration 0.1 nM to 3.3 μM, 30-minute incubation at 37° C.; read-out: IC50 values (μM) Caspase-6
Sequence of Caspase-6 (P55212 24-179): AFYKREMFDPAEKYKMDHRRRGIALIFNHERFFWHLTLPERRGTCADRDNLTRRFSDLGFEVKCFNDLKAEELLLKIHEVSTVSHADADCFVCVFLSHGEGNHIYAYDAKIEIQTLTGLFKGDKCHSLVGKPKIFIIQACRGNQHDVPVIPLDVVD
Sequence of Caspase-6 (P55212 194-293): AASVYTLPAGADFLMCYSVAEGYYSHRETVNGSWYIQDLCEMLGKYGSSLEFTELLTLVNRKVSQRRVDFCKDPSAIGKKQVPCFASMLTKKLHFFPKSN
Procedure: as §1, §2

Caspase-3 [2] = molecular target: T2, Caspase-3 (Homo sapiens (Human), UniProt P42574); assay: Caspase-3 Inhibitor Drug Screening Kit, fluorometric (AFC liberation); type: biochemical
Target sequence in this assay (P42574 29-277): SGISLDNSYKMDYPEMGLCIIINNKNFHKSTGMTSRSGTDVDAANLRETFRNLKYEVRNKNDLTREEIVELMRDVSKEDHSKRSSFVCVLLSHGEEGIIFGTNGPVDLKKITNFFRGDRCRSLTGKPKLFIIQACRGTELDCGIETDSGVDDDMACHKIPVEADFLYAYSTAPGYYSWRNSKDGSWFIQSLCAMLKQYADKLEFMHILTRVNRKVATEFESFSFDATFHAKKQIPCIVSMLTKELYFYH
Procedure: (§3) The level of inhibition of caspase-1, -3, -5, -7, -9 activity was determined by comparison of the relative fluorescence intensity in samples with or without the compound.

Caspase-8 = Caspase-8 (Homo sapiens (Human), UniProt Q14790); assay: Fluorometric enzymatic assay, active recombinant Caspase-8; type: biochemical; conditions: 10-point titration 0.1 nM to 3.3 μM, 30-minute incubation at 37° C.; read-out: IC50 values (μM) Caspase-8
Procedure: as §1, §2

Caspase-9 = Caspase-9 (Homo sapiens (Human), UniProt P55211); assay: Fluorometric enzymatic assay, active recombinant Caspase-9; conditions: read-out: IC50 values (μM) Caspase-9; 10-point titration 0.1 nM to 3.3 μM, 30-minute incubation at 37° C.
Sequence of Caspase-9 (P55211 whole entry, looked up, change not shown): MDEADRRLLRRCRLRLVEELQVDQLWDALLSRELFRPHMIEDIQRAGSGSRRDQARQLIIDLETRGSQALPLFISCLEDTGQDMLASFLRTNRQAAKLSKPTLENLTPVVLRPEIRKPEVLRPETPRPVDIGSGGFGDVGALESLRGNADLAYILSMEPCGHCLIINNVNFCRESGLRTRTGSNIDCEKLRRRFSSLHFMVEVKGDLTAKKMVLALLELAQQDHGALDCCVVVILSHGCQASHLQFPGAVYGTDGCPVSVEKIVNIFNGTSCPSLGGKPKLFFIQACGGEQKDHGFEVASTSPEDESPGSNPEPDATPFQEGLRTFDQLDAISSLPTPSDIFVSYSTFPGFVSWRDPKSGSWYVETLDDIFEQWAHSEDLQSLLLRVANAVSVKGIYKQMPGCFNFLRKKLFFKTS
Sequence of Caspase-9 (P55211 whole entry, looked up, change not shown): as above
Procedure: (§4) Each dilution of the test compounds was tested in duplicates, whereas the DMSO or Z-VAD-FMK controls were tested in triplicates. […] The inhibition efficiency and the IC50 values of the test compounds were then determined by comparing the fluorescence intensity (FI) of the test compounds with that of the DMSO control.

[3] = test system: proteolytic cleavage of PARP (poly ADP-ribose polymerase) in Hela cells; assay: Inhibition of staurosporine-induced PARP cleavage in live Hela cells; type: cell-based
Procedure, shortened: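 HeLa cells in 96 well plates were exposed for 4 hours to the apoptosis inducer staurosporine with or without test compound. Fixed cells were stained with a fluorescein-labeled anti-cleaved PARP antibody and counterstained with Hoechst33342. Cellomics imaging gave the fraction of nuclei positive for cleaved PARP, and inhibition was computed relative to staurosporine-only treatment.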

Caspase-5 [4] = molecular target: T1, Caspase-5; assay: Caspase-5 Inhibitor Drug Screening Kit, fluorometric (AFC liberation); type: biochemical; conditions: 30-minute incubation at 37° C.; approximations of the average values; read-out: Caspase enzymatic activity, IC50 (uM) Caspase 5
Procedure: as §3

Caspase-7 [5] = molecular target: T3, Caspase-7 (Homo sapiens (Human), UniProt P55210); assay: Fluorometric enzymatic assay, active recombinant Caspase-7
Target sequence in this assay (P55210 whole entry, looked up): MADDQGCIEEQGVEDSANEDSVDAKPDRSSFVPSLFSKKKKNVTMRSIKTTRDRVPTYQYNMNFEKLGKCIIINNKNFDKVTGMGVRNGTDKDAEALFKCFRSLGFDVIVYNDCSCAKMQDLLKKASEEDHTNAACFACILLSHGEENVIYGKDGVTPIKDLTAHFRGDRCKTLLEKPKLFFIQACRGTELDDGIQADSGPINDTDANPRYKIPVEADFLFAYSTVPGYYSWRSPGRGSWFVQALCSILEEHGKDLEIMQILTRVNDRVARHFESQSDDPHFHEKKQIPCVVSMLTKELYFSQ
Target sequence in this assay (P55210 whole entry, looked up): as above
Procedure: as §4

Caspase-3 [6] = molecular target: T2, Caspase-3; assay: Fluorometric enzymatic assay, active recombinant Caspase-3
Target sequence in this assay (P42574 29-175): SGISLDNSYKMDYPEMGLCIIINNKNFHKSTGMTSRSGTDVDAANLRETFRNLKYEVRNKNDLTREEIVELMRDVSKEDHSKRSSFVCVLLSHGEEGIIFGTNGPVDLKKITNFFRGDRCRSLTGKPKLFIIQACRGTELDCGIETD
Target sequence in this assay (P42574 176-277): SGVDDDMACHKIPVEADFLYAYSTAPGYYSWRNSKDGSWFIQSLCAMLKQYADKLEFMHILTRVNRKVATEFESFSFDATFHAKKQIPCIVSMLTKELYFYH
Procedure: as §4

Caspase-4 = Caspase-4 (Homo sapiens (Human), UniProt P49662); assay: Fluorometric enzymatic assay, active recombinant Caspase-4
Sequence of Caspase-4 (P49662 81-270): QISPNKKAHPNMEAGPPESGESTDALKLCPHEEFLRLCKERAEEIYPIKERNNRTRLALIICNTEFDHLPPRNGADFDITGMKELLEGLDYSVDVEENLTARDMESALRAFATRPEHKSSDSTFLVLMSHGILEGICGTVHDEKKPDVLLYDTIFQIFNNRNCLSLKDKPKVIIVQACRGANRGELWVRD
Sequence of Caspase-4 (P49662 290-377): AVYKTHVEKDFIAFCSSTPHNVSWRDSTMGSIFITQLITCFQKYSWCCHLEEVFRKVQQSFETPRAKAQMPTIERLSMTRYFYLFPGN
Procedure: as §4

Caspase-1 [7] = molecular target: T4, Caspase-1 (Homo sapiens (Human), UniProt P29466); assay: Fluorometric enzymatic assay, active recombinant Caspase-1
Target sequence in this assay (P29466 whole entry, looked up): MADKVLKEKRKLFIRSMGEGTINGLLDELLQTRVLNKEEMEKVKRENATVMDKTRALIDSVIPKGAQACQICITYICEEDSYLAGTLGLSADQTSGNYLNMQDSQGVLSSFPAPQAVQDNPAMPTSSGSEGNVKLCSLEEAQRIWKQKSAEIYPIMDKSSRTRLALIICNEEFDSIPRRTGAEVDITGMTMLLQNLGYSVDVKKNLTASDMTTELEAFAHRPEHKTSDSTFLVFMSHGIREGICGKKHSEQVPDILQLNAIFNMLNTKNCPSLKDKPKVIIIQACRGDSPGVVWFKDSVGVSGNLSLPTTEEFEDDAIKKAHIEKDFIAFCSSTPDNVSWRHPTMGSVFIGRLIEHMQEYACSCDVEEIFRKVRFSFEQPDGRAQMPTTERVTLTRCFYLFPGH
Target sequence in this assay (P29466 whole entry, looked up): as above
Procedure: as §4

Caspase-1 [8] = molecular target: T4, Caspase-1; assay: Caspase-1 Inhibitor Drug Screening Kit, fluorometric (AFC liberation); type: biochemical; conditions: 30-minute incubation at 37° C.; approximations of the average values; read-out: Caspase enzymatic activity, IC50 (uM) Caspase 1
Procedure: as §3

Caspase-7 [9] = molecular target: T3, Caspase-7; assay: Caspase-7 Inhibitor Drug Screening Kit, fluorometric (AFC liberation); type: biochemical; conditions: 30-minute incubation at 37° C.; approximations of the average values; read-out: Caspase enzymatic activity, IC50 (uM) Caspase 7
Procedure: as §3

Glo3/7 = Glo3/7 assay; type: biochemical
Caspase-2 = Caspase-2 (Homo sapiens (Human), UniProt P42575); assay: Fluorometric enzymatic assay, active recombinant Caspase-2; type: biochemical; conditions: 10-point titration 0.1 nM to 3.3 μM, 30-minute incubation at 37° C.; read-out: IC50 values (μM) Caspase-2
Sequence of Caspase-2 (P42575 170-325): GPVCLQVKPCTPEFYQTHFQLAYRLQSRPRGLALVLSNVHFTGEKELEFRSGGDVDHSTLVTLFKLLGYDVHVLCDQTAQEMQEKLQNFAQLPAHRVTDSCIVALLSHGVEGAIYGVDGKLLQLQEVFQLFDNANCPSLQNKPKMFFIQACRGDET
Sequence of Caspase-2 (P42575 348-452): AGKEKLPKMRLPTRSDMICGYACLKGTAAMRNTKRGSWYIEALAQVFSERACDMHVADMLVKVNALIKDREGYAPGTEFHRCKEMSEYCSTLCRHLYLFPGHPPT
Procedure: as §1, §2

Caspase-10 = Caspase-10 (Homo sapiens (Human), UniProt Q92851); assay: Fluorometric enzymatic assay, active recombinant Caspase-10; conditions: read-out: IC50 values (μM) Caspase-10; 10-point titration 0.1 nM to 3.3 μM, 30-minute incubation at 37° C.
Sequence of Caspase-10 (Q92851 220-415): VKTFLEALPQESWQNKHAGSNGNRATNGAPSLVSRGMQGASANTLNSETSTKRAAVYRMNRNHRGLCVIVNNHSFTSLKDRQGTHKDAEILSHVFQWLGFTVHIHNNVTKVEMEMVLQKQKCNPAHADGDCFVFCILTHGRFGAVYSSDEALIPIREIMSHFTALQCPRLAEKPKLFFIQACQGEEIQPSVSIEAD
Sequence of Caspase-10 (Q92851 416-521): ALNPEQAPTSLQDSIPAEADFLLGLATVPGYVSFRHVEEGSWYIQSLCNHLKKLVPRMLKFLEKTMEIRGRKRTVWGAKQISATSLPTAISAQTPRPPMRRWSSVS
Procedure: as §4

## CC(C)[C@H](NC(=O)[C@@H](NC(=O)[C@H](CC(=O)O)NC(=O)OCc1ccccc1)c1ccccc1)C(=O)N[C@H](/C=C/S(C)(=O)=O)CC(=O)O [Compound 53, Z-Asp-Phg-Val-Aspmethyl vinyl sulfone]
Caspase-5 [1]
  IC50: > 3.33 µM
Caspase-6
  IC50: > 3.33 µM
Caspase-3 [2]; 30-minute incubation at 37° C., approximations of the average values, read-out: Caspase enzymatic activity, IC50 (uM) Caspase 3
  IC50: 0.06 µM
Caspase-3 [2]; IC50 caspase-7 versus caspase-3
  selectivity of Caspase-3 over Caspase-7 based on IC50 values: about 12 fold
Caspase-3 [2]; read-out: IC50 caspase-3
  IC50: 0.03 to 0.09 µM
Caspase-8
  IC50: > 3.33 µM
Caspase-9
  IC50: > 3.33 µM
[3]; Hela cells, staurosporine
  effectivity in inhibiting PARP cleavage: highly effective relative to DEVD-fmk
[3]; Homo sapiens, HeLa, 4 h, read-out: % inhibition of PARP cleavage at 50 uM compound, Hela cells, staurosporine 4 hours, 50 uM compound
  inhibition at 50 µM: > 50%
Caspase-5 [4]
  IC50: > 10 µM
Caspase-7 [5]; FIG. 5
  inhibitory activity towards Caspase-7: high inhibitory activity
Caspase-7 [5]; read-out: IC50 values (μM) Caspase-7, 10-point titration 0.1 nM to 3.3 μM, 30-minute incubation at 37° C.
  IC50: 0.8 µM
Caspase-3 [6]; FIG. 5
  inhibitory activity towards Caspase-3: high inhibitory activity
Caspase-3 [6]; read-out: IC50 values (μM) Caspase-3, 10-point titration 0.1 nM to 3.3 μM, 30-minute incubation at 37° C.
  IC50: 0.09 µM
Caspase-4; FIG. 5
  inhibitory activity towards Caspase-4: inhibitory activity
Caspase-4; read-out: IC50 values (μM) Caspase-4, 10-point titration 0.1 nM to 3.3 μM, 30-minute incubation at 37° C.
  IC50: 2.8 µM
Caspase-1 [7]; FIG. 5
  inhibitory activity towards Caspase-1: inhibitory activity
Caspase-1 [7]; read-out: IC50 values (μM) Caspase-1, 10-point titration 0.1 nM to 3.3 μM, 30-minute incubation at 37° C.
  IC50: 2.1 µM
Caspase-1 [8]
  IC50: 2 µM
Caspase-7 [9]
  IC50: 0.8 µM
Glo3/7
  IC50: 0.1 µM
Caspase-2
  IC50: > 3.33 µM
Caspase-10
  IC50: > 3.33 µM
